{"source": "patent US11207360B2", "about": "“Composition for the treatment of dysbiosis of the intestinal microbiota” (NUTRAVIS S.R.L., priority 2017, dated 2021)", "format_in_all_cases": "cell-based", "details_in_all_cases": "liposomes containing 1 mg beta-carotene, 24 hours at 37° C.", "key": {"[1]": {"system": "Lactobacillus Rhamnosus", "test": "Abscisic acid production by Lactobacillus Rhamnosus culture incubated with liposomes, ABA ELISA", "method": "(§1) Lyophilized probiotics were grown separately in LB medium in shake-flasks equipped with vented cap at 37° C. for 24 hours. After growth, each probiotic suspension was diluted with LB medium to reach approximately 0.1 O.D. at 600 nm. 3.5 ml of each diluted suspension was added with 500 μl of:\n(§2) ii) liposomes containing 1 mg carotene,\n(§3) iii) liposomes containing 0.1 mg xanthophyll,\n(§4) iv) both liposomes containing carotene and xanthophyll, and\n(§5) incubated with shaking at 350 rpm at 37° C. for 24 hours.\n(§6) At the end of the incubation, each probiotic suspension was pelleted by centrifugation at 3000×g for 10 minutes. Supernatant was recovered, added with 4 vol of methanol and stored at −20° C. for 24 hours. Pellet was washed once with saline buffer, centrifuged at 3000×g for 10 minutes, resuspended in 2 ml of methanol, sonicated in ice and stored at −20° C. for 24 hours.\n(§7) 4 mg of carotene and 0.4 mg of xanthophyll were dissolved each in 200 μl of chloroform by vortexing. For each liposome preparation 200 mg of lecithin were dissolved in 500 μl of chloroform. Both carotene and xanthophyll chloroform solutions were added, separately, to the chloroform lecithin solution, vortexed, and completely dried with N2 to create a thin layer on the inner wall of a glass Corex. […]\n(§8) Quantification of abscisic acid (ABA) was performed on both pellets and supernatants obtained as described above (see Bacterial cell culture). […]"}, "[2]": {"system": "Bacillus coagulans", "test": "Abscisic acid (ABA) production by Bacillus coagulans culture incubated with carotenoid liposomes, ABA ELISA", "method": "Lyophilized probiotics were grown separately in LB medium in shake-flasks equipped with vented cap at 37° C. for 24 hours. After growth, each probiotic suspension was diluted with LB medium to reach approximately 0.1 O.D. at 600 nm. 3.5 ml of each diluted suspension was added with 500 μl of: i) empty liposomes, […] iii) liposomes containing 0.1 mg xanthophyll, iv) both liposomes containing carotene and xanthophyll, and incubated with shaking at 350 rpm at 37° C. for 24 hours. At the end of the incubation, each probiotic suspension was pelleted by centrifugation at 3000×g for 10 minutes. Supernatant was recovered, added with 4 vol of methanol and stored at −20° C. for 24 hours. Pellet was washed once with saline buffer, centrifuged at 3000×g for 10 minutes, resuspended in 2 ml of methanol, sonicated in ice and stored at −20° C. for 24 hours. 4 mg of carotene and 0.4 mg of xanthophyll were dissolved each in 200 μl of chloroform by vortexing. For each liposome preparation 200 mg of lecithin were dissolved in 500 μl of chloroform. Both carotene and xanthophyll chloroform solutions were added, separately, to the chloroform lecithin solution, vortexed, and completely dried with N2 to create a thin layer on the inner wall of a glass Corex. […] Quantification of abscisic acid (ABA) was performed on both pellets and supernatants obtained as described above (see Bacterial cell culture). […]"}, "[3]": {"system": "Bacillus coagulans, Lactobacillus Plantarum", "test": "Abscisic acid production by culture of Bacillus coagulans and Lactobacillus Plantarum incubated with liposomes, ABA ELISA", "method": "as §1, §2, §3, §4, §5, §6, §7, §8"}}, "data": [{"smiles": "CC1=C(/C=C/C(C)=C/C=C/C(C)=C/C=C/C=C(C)/C=C/C=C(C)/C=C/C2=C(C)CCCC2(C)C)C(C)(C)CCC1", "note": "[beta-carotene]", "values": [{"measurement": "production of abscisic acid, times higher than culture with empty liposomes (FIG. 1C)", "setting": "[1]", "result": "about 20 times"}, {"measurement": "production of abscisic acid, times higher than culture with empty liposomes (FIG. 2)", "setting": "[2]", "result": "about 5 times"}, {"measurement": "production of abscisic acid, times higher than culture with empty liposomes (FIG. 1A)", "setting": "[2]; p=0.0093", "result": "about 6.6 times"}, {"measurement": "production of abscisic acid, times higher than culture with empty liposomes (FIG. 1B)", "setting": "[3]", "result": "about 7.5 times"}]}]}
